According to PubChem BioAssay AID192 (DTP/NCI, 2004):
Values joined by “and” are separate entries in the source; they are usually repeats but may differ in a detail not shown here. Identical values can stand only once. Toxic doses and inconclusive results are not listed. Peptide text beside a SMILES is read from it. * marks the point of attachment. Cbz = O=C(OCc1ccccc1)*

Tested on: BDF1 mice, B16 melanoma ip, median survival T/C
Test: NCI In Vivo Anticancer Drug Screen. Data for tumor model B16 Melanoma (intraperitoneal) in B6D2F1 (BDF1) mice
Details: endpoint: median survival time, higher = longer survival
How it was run: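 In this screen, activity was judged from survival or tumor size in treated versus vehicle-treated tumor-bearing mice, reported as T/C.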

[1] = dose: 100.0 mg/kg/injection, schedule: Q01DX009 (ip), vehicle: Klucel (hydroxypropylcellulose) (HPC)
[2] = dose: 1.56 mg/kg/injection, schedule: Q01DX009 (ip), vehicle: saline
[3] = dose: 25.0 mg/kg/injection, schedule: Q01DX009 (ip), vehicle: saline
[4] = dose: 50.0 mg/kg/injection, schedule: Q01DX009 (ip), vehicle: water
[5] = dose: 100.0 mg/kg/injection, schedule: Q01DX009 (ip), vehicle: saline with Tween-80
[6] = dose: 200.0 mg/kg/injection, schedule: Q01DX009 (ip), vehicle: saline with Tween-80
[7] = dose: 50.0 mg/kg/injection, schedule: Q01DX009 (ip), vehicle: saline with Tween-80
[8] = dose: 12.5 mg/kg/injection, schedule: Q01DX009 (ip), vehicle: Klucel (hydroxypropylcellulose) (HPC)
[9] = dose: 25.0 mg/kg/injection, schedule: Q01DX009 (ip), vehicle: Klucel (hydroxypropylcellulose) (HPC)
[10] = dose: 50.0 mg/kg/injection, schedule: Q01DX009 (ip), vehicle: Klucel (hydroxypropylcellulose) (HPC)
[11] = dose: 12.5 mg/kg/injection, schedule: Q01DX009 (ip), vehicle: saline with Tween-80
[12] = dose: 25.0 mg/kg/injection, schedule: Q01DX009 (ip), vehicle: saline with Tween-80

SMILES: O=C1OC(C(O)CO)C(O)=C1O (stereo unspecified)
- T/C (dose: 0.12 mg/kg/injection, schedule: Q01DX009 (ip), vehicle: saline): 100 % of control
- T/C (dose: 0.25 mg/kg/injection, schedule: Q01DX009 (ip), vehicle: saline): 110 % of control
- T/C (dose: 0.5 mg/kg/injection, schedule: Q01DX009 (ip), vehicle: saline): 105 % of control
- T/C (dose: 1.0 mg/kg/injection, schedule: Q01DX001 (ip), vehicle: saline): 102 % of control
- T/C (dose: 1.0 mg/kg/injection, schedule: Q01DX009 (ip), vehicle: saline): 110 % of control
- T/C (dose: 2.0 mg/kg/injection, schedule: Q01DX001 (ip), vehicle: saline): 100 % of control
- T/C (dose: 2.0 mg/kg/injection, schedule: Q01DX009 (ip), vehicle: saline): 110 % of control
- T/C (dose: 4.0 mg/kg/injection, schedule: Q01DX001 (ip), vehicle: saline): 95 % of control
- T/C (dose: 4.0 mg/kg/injection, schedule: Q01DX009 (ip), vehicle: saline): 105 % of control
- T/C (dose: 8.0 mg/kg/injection, schedule: Q01DX001 (ip), vehicle: saline): 102 % of control
- T/C (dose: 8.0 mg/kg/injection, schedule: Q01DX009 (ip), vehicle: saline): 110 % of control
- T/C (dose: 16.0 mg/kg/injection, schedule: Q01DX001 (ip), vehicle: saline): 100 % of control
- T/C (dose: 16.0 mg/kg/injection, schedule: Q01DX009 (ip), vehicle: saline): 95 % of control
- T/C (dose: 32.0 mg/kg/injection, schedule: Q01DX001 (ip), vehicle: saline): 100 % of control
- T/C (dose: 64.0 mg/kg/injection, schedule: Q01DX001 (ip), vehicle: saline): 97 % of control

SMILES: CC(=O)CC(=O)Nc1cc(C)c(NC(=O)CC(C)=O)cc1C
- T/C [1]: 93 % of control
- T/C (dose: 200.0 mg/kg/injection, schedule: Q01DX009 (ip), vehicle: Klucel (hydroxypropylcellulose) (HPC)): 93 % of control

SMILES: CC(=N\[O-])/C(C)=N/O.CC(=N\[O-])/C(C)=N/O.CC(=O)[O-].CC(=O)[O-].O.[Rh+2].[Rh+2]
- T/C [2]: 115 % of control
- T/C [3]: 115 % of control

SMILES: O=C1C=C2C(=CCOC2O)O1 (stereo unspecified)
- T/C (dose: 0.39 mg/kg/injection, schedule: Q01DX009 (ip), vehicle: Klucel (hydroxypropylcellulose) (HPC)): 96 % of control
- T/C (dose: 0.75 mg/kg/injection, schedule: Q01DX009 (ip), vehicle: Klucel (hydroxypropylcellulose) (HPC)): 106 % of control
- T/C (dose: 1.5 mg/kg/injection, schedule: Q01DX009 (ip), vehicle: Klucel (hydroxypropylcellulose) (HPC)): 96 % of control
- T/C (dose: 3.0 mg/kg/injection, schedule: Q01DX009 (ip), vehicle: Klucel (hydroxypropylcellulose) (HPC)): 86 % of control

SMILES: Nc1n[n+](-c2ccc(Cl)cc2)no1
- T/C (dose: 3.12 mg/kg/injection, schedule: Q01DX009 (ip), vehicle: water): 102 % of control
- T/C (dose: 6.25 mg/kg/injection, schedule: Q01DX009 (ip), vehicle: water): 107 % of control
- T/C (dose: 12.5 mg/kg/injection, schedule: Q01DX009 (ip), vehicle: water): 109 % of control
- T/C [4]: 117 % of control

SMILES: CCCCNC(=O)Nc1ccccc1Cl
- T/C [5]: 100 % of control
- T/C [6]: 98 % of control
- T/C (dose: 400.0 mg/kg/injection, schedule: Q01DX009 (ip), vehicle: saline with Tween-80): 98 % of control

SMILES: COC(=O)C1CCC(C(=O)O)CC1 (stereo unspecified)
- T/C (dose: 100.0 mg/kg/injection, schedule: Q04DX003 (ip), vehicle: Klucel (hydroxypropylcellulose) (HPC)): 100 % of control
- T/C (dose: 200.0 mg/kg/injection, schedule: Q04DX003 (ip), vehicle: Klucel (hydroxypropylcellulose) (HPC)): 100 % of control

SMILES: C=CCOCCN1CCN(CCCN2c3ccccc3Sc3ccc(C(F)(F)F)cc32)CC1
- T/C (dose: 0.31 mg/kg/injection, schedule: Q01DX009 (ip), vehicle: saline): 102 % of control
- T/C (dose: 0.62 mg/kg/injection, schedule: Q01DX009 (ip), vehicle: saline): 95 % of control
- T/C (dose: 0.78 mg/kg/injection, schedule: Q01DX009 (ip), vehicle: saline): 102 % of control
- T/C [2]: 114 % of control

SMILES: CCCCCc1cc(O)c2c(c1)OC(C)(C)c1ccc(C)cc1-2
- T/C (dose: 64.0 mg/kg/injection, schedule: Q01DX009 (ip), vehicle: saline): 115 % of control
- T/C (dose: 128.0 mg/kg/injection, schedule: Q01DX009 (ip), vehicle: saline): 110 % of control
- T/C (dose: 256.0 mg/kg/injection, schedule: Q01DX009 (ip), vehicle: saline): 112 % of control
- T/C (dose: 512.0 mg/kg/injection, schedule: Q01DX009 (ip), vehicle: saline): 88 % of control

SMILES: O=C(NC(Cc1ccccc1)C(=O)N1CCCC1C(=O)O)OCc1ccccc1 (stereo not drawn) (Cbz-Phe-Pro-OH; configuration not given here)
- T/C [7]: 99 % of control
- T/C [5]: 99 % of control
- T/C [6]: 91 % of control

SMILES: O=C1N(Br)C(=O)C(c2ccc(Cl)cc2)(c2ccc(Cl)cc2)N1Br
- T/C (dose: 6.25 mg/kg/injection, schedule: Q01DX009 (ip), vehicle: Klucel (hydroxypropylcellulose) (HPC)): 103 % of control
- T/C [8]: 98 % of control
- T/C [9]: 100 % of control
- T/C [10]: 88 % of control

SMILES: CN(C)CCSc1cc(O)c2c(c1O)C(=O)c1ccccc1C2=O
- T/C [4]: 94 % of control
- T/C (dose: 100.0 mg/kg/injection, schedule: Q01DX009 (ip), vehicle: water): 102 % of control

SMILES: O=[N+]([O-])c1cc(Br)cc2c1nc(Cl)c1ccccc12
- T/C [7]: 94 % of control
- T/C [5]: 88 % of control

SMILES: COC1CCC2=C(C1)C(=O)CC1c3ccccc3CN21 (stereo unspecified)
- T/C [11]: 86 % of control
- T/C (dose: 12.5 mg/kg/injection, schedule: Q04DX003 (ip), vehicle: saline with Tween-80): 92 % of control
- T/C [12]: 93 % of control
- T/C (dose: 25.0 mg/kg/injection, schedule: Q04DX003 (ip), vehicle: saline with Tween-80): 105 % of control
- T/C [7]: 93 % of control
- T/C (dose: 50.0 mg/kg/injection, schedule: Q04DX003 (ip), vehicle: saline with Tween-80): 97 % of control

SMILES: O=C1NC(=O)C([N+](=O)[O-])=C(O)C1=O
- T/C (dose: 75.0 mg/kg/injection, schedule: Q04DX003 (ip), vehicle: other): 105 % of control
- T/C (dose: 150.0 mg/kg/injection, schedule: Q04DX003 (ip), vehicle: other): 95 % of control

SMILES: O=Nc1ccc(O)c(=O)cc1
- T/C (dose: 1.0 mg/kg/injection, schedule: Q01DX009 (ip), vehicle: saline with Tween-80): 97 % of control
- T/C (dose: 2.0 mg/kg/injection, schedule: Q01DX009 (ip), vehicle: saline with Tween-80): 90 % of control

SMILES: CSCCC(NC(=O)c1ccccc1)C(=O)O (stereo unspecified)
- T/C [8]: 89 % of control
- T/C [11]: 104 % of control
- T/C [9]: 100 % of control
- T/C [12]: 97 % of control
- T/C [10]: 88 % of control
- T/C [7]: 99 % of control
- T/C [1]: 88 % of control

SMILES: OC(COC(c1ccccc1)(c1ccccc1)c1ccccc1)C(O)CC1SCCS1 (stereo unspecified)
- T/C (dose: 3.13 mg/kg/injection, schedule: Q01DX009 (ip), vehicle: saline with Tween-80): 107 % of control
- T/C (dose: 6.25 mg/kg/injection, schedule: Q01DX009 (ip), vehicle: saline with Tween-80): 100 % of control
- T/C [11]: 103 % of control
- T/C [12]: 104 % of control

SMILES: NC(=S)N/N=C/c1nccc2ccccc12
- T/C (dose: 6.25 mg/kg/injection, schedule: Q01DX009 (ip), vehicle: saline): 153 % of control
- T/C (dose: 9.4 mg/kg/injection, schedule: Q01DX009 (ip), vehicle: saline with Tween-80): 105 % of control and 122 % of control
- T/C (dose: 9.4 mg/kg/injection, schedule: Q04DX003 (ip), vehicle: saline): 122 % of control
- T/C (dose: 18.8 mg/kg/injection, schedule: Q01DX009 (ip), vehicle: saline with Tween-80): 118 % of control and 122 % of control and 124 % of control
- T/C [3]: 172 % of control
- T/C (dose: 50.0 mg/kg/injection, schedule: Q01DX009 (ip), vehicle: saline): 196 % of control
- T/C (dose: 100.0 mg/kg/injection, schedule: Q01DX009 (ip), vehicle: saline): 155 % of control
- T/C (dose: 150.0 mg/kg/injection, schedule: Q04DX003 (ip), vehicle: saline): 152 % of control

SMILES: C[C@H]1C(=O)O[C@@H]2CCN3CC=C(COC(=O)[C@](C)(O)[C@@]1(C)O)[C@H]23
- T/C [3]: 123 % of control
